# Test results: patent US6498159B1, “Phthalazine derivatives and remedies for erectile dysfunction” (Eisai Co., Ltd., priority 1998, dated 2002)
# Counter-ions that a name gives are not always drawn.
# Molecular target: PDE5 (Sus scrofa, UniProt A0A287B475)
# Experiment: Inhibitory action on the enzyme cGMP-PDE obtained from porcine platelets
# Assay type: biochemical
# Conditions: 1 μM cGMP substrate, 1 mM EGTA, read-out: PDE 5 IC50
# Method: 1) Inhibitory Action on the Enzyme cGMP-PDE Obtained from Porcine Platelets
# The inhibitory activity of a test compound on the enzyme cGMP-PDE prepared from porcine platelets was determined by adding a solution of the test compound dissolved in DMSO to a reaction solution, where 1 μM cGMP was used as the substrate in the presence of 1 mM EGTA in accordance with a method of Tompson et al. The final concentration of DMSO in the reaction solution was 1% or less. Preparation of cGMP-PDE was conducted as follows. Porcine platelets were added to buffer A (20 mM Tris/HCl, 2 mM magnesium acetate, 10 mM 2-mercaptoethanol, 0.1 mM EGTA; pH 7.4), and then sonicated. The resulting suspension was centrifuged at 100,000×g for 60 min, and the resulting supernatant was subjected to a column (DEAE-Toyopearl 650S produced by Tosoh, Tokyo, Japan). After the column was washed with buffer A, the enzyme was eluted with a gradient of from 0.075 to 0.25 M NaCl in buffer A to give a CGMP-PDE fraction. The resulting fraction was dialyzed, concentrated and stored.
row,SMILES,IC50 [nM]
1,"COc1ccc(CNc2nnc(-c3ccccn3)c3ccc(C#N)cc23)cc1Cl [Example 2, 4-(3-Chloro-4-methoxybenzyl)amino-6-cyano-1-(2-pyridyl)phthalazine Dihydrochloride]",0.3
2,"CO/N=C/c1ccc2c(N3CCC(O)CC3)nnc(NCc3ccc(OC)c(Cl)c3)c2c1 [Example 110, 4-[(3-Chloro-4-methoxybenzyl)amino]-1-(4-hydroxypiperidino)-6-phthalazinecarbaldehyde O6-Methyloxime Hydrochloride]",0.66
3,"COc1ccc(CNc2nnc(N(C)CCc3ccccn3)c3ccc(C#N)cc23)cc1Cl [Production Example 8, 4-(3-Chloro-4-methoxybenzyl)amino-6-cyano-1-{N-methyl-[2-(2-pyridyl)ethyl]amino}phthalazine Dihydrochloride]",0.47
4,"COc1ccc(CNc2nnc(N3CCC(O)CC3)c3ccc(-n4cccn4)cc23)cc1Cl [Example 105, 1-[4-[(3-Chloro-4-methoxybenzyl)amino]-6-(1H-1-pyrazolyl)-1-phthalazinyl]-4-piperidinol Hydrochloride]",0.1
5,"COc1ccc(CNc2nnc(C#CC(C)(C)N)c3ccc(C#N)cc23)cc1Cl [Example 25, 1-(3-Amino-3-methyl-1-butynyl)-4-[(3-chloro-4-methoxybenzyl)amino]-6-phthalazinecarbonitrile Hydrochloride]",0.16
6,"COc1ccc(CCNc2nnc(N3CCCC(CO)C3)c3ccc(C#N)cc23)cc1Cl (centres unmarked) [Production Example 5, 4-(3-Chloro-4-methoxyphenethyl)amino-6-cyano-1-(3-hydroxymethylpiperidino)phthalazine Hydrochloride]",0.23
7,"COc1ccc(CCNc2nnc(N3CCC(C#N)CC3)c3ccc(C#N)cc23)cc1Cl [Example 4, 4-(3-Chloro-4-methoxyphenethyl)amino-6-cyano-1-(4-cyanopiperidino)phthalazine Hydrochloride]",0.51
8,"COc1ccc(CNc2nnc(N3CC[C@H](CO)C3)c3ccc(C#N)cc23)cc1Br [Example 79, 4-[(3-Bromo-4-methoxybenzyl)amino]-1-[(3S)-3-(hydroxymethyl)tetrahydro-1H-1-pyrrolyl]-6-phthalazinecarbonitrile Hydrochloride]",0.27
9,"COc1ccc(CNc2nnc(N3[C@@H]4CC[C@H]3C[C@@H](O)C4)c3ccc(C#N)cc23)cc1Cl [Example 52, (endo)-4-[(3-Chloro-4-methoxybenzyl)amino]-1-(3-hydroxy-8-azabicyclo[3.2.1]oct-8-yl)-6-phthalazinecarbonitrile Hydrochloride]",0.2
10,"COc1ccc(CNc2nnc(N(C)Cc3ccccn3)c3ccc(C#N)cc23)cc1Cl [Production Example 7, 4-(3-Chloro-4-methoxybenzyl)amino-6-cyano-1-[methyl(2-pyridylmethyl)amino]phthalazine Dihydrochloride]",0.03
11,"COc1ccc(CNc2nnc(N3[C@@H]4CC[C@H]3C[C@@H](O)C4)c3ccc(C#N)cc23)cc1Br [Example 85, (endo)-4-[(3-Bromo-4-methoxybenzyl)amino]-1-(3-hydroxy-8-azabicyclo[3.2.1]octo-8-yl)-6-phthalazine Carbonitrile]",0.12
12,"COc1ccc(CNc2nnc(N3CCC(CO)CC3)c3ccc(C#N)cc23)cc1Br [Example 84, 4-[(3-Bromo-4-methoxybenzyl)amino]-1-[4-(hydroxymethyl)piperidino]-6-phthalazinecarbonitrile Hydrochloride]",0.93
13,"COc1ccc(CNc2nnc(-c3cccnc3)c3ccc(C#N)cc23)cc1Cl [Example 1, 4-(3-Chloro-4-methoxybenzyl)amino-6-cyano-1-(3-pyridyl)phthalazine Dihydrochloride]",0.78

# Further lines, results first:
row,IC50 [nM],SMILES
1,0.5,"COc1ccc(CCNc2nnc(N3CCC(CO)CC3)c3ccc(C#N)cc23)cc1Cl [Production Example 6, 4-(3-Chloro-4-methoxyphenethyl)amino-6-cyano-1-(4-hydroxymethylpiperidino)phthalazine]"
2,1.1,"COc1ccc(CNc2nnc(N3CCC(C#N)CC3)c3ccc(C#N)cc23)cc1Cl [Example 3, 4-(3-Chloro-4-methoxybenzyl)amino-6-cyano-1-(4-cyanopiperidino)phthalazine Hydrochloride]"
3,0.98,"COc1ccc(CNc2nnc(N3CCC(O)(CO)CC3)c3ccc(C#N)cc23)cc1Cl [Example 6, 4-(3-Chloro-4-methoxybenzyl)amino-6-cyano-1-[4-hydroxy-4-(hydroxymethyl)piperidino]phthalazine Hydrochloride]"
4,0.051,"COc1ccc(CNc2nnc(N3CCC(N)CC3)c3ccc(C#N)cc23)cc1Cl [Example 5, 1-(4-Aminopiperidino)-4-(3-chloro-4-methoxybenzyl)amino-6-cyanophthalazine Dihydrochloride]"
5,0.24,"COc1ccc(CNc2nnc(N3CCC(=NO)CC3)c3ccc(C#N)cc23)cc1Cl [Example 50, 4-[(3-Chloro-4-methoxybenzyl)amino]-1-(4-hydroxyiminopiperidino)-6-phthalazinecarbonitrile Hydrochloride]"
6,0.68,"COc1ccc(CNc2nnc(N3CCC4(CC3)COC(=O)C4)c3ccc(C#N)cc23)cc1Cl [Example 11, 4-[(3-Chloro-4-methoxybenzyl)amino]-1-(3-oxo-2-oxa-8-azaspiro[4.5]dece-8-yl)-6-phthalazine Carbonitrile]"
7,0.24,"COc1ccc(CNc2nnc(N3CCC(O)C(C)C3)c3ccc(C#N)cc23)cc1Cl (centres unmarked) [Production Example 11, 4-[(3-Chloro-4-methoxybenzyl)amino]-1-(4-hydroxy-3-methylpiperidino)-6-phthalazinecarbonitrile Hydrochloride]"
8,0.54,"COc1ccc(CNc2nnc(N3CCC4(CC3)CC(=O)C4)c3ccc(C#N)cc23)cc1Cl [Example 12, 4-[(3-Chloro-4-methoxybenzyl)amino]-1-(2-oxo-7-azaspiro[3.5]non-7-yl)-6-phthalazine Carbonitrile]"
9,0.09,"COc1ccc(CNc2nnc(N3CCC[C@@H](O)C3)c3ccc(C#N)cc23)cc1Cl [Production Example 1, 4-(3-Chloro-4-methoxybenzyl)amino-6-cyano-1-[(3R)-3-hydroxypiperidino]phthalazine Hydrochloride]"
10,0.23,"COc1ccc(CNc2nnc(N3CCC(F)(CO)CC3)c3ccc(C#N)cc23)cc1Cl [Example 43, 4-[(3-Chloro-4-methoxybenzyl)amino]-1-[4-fluoro-4-(hydroxymethyl)piperidino]-6-phthalazinecarbonitrile Hydrochloride]"
11,0.19,"COc1ccc(CNc2nnc(N3CCCC(CO)C3)c3ccc(C#N)cc23)cc1Cl (centres unmarked) [Production Example 4, 4-(3-Chloro-4-methoxybenzyl)amino-6-cyano-1-(3-hydroxymethylpiperidino)phthalazine Hydrochloride]"
12,0.13,"COc1ccc(CNc2nnc(N3CCC(O)CC3)c3ccc(C#N)cc23)cc1I [Example 76, 1-(4-Hydroxypiperidino)-4-[(3-iodo-4-methoxybenzyl)amino]-6-phthalazinecarbonitrile Hydrochloride]"
13,0.72,"COc1ccc(CNc2nnc(N3CCC[C@H]3CO)c3ccc(C#N)cc23)cc1Cl [Production Example 3, 4-(3-Chloro-4-methoxybenzyl)amino-6-cyano-1-[(2S)-2-hydroxymethylpyrrolidino]phthalazine Hydrochloride]"
